In patent publication US20200369629A1, “BENZAMIDE COMPOUNDS AND THEIR USE AS HERBICIDES” (BASF SE, priority 2017, published 2020):

How the values were obtained:
Format in all cases: in vivo
[1] = test system: ALOMY (Alopecurus myosuroiedes); test: Greenhouse post-emergence test, test series 1, ALOMY; conditions: application rate 62.5 g/ha, scale 0 to 100 (100 = complete destruction, 0 = no damage)
From the text: (§1) The seeds of the test plants were sown separately for each species. For the pre-emergence treatment, the active ingredients, which had been suspended or emulsified in water, were applied directly after sowing by means of finely distributing nozzles. The containers were irrigated gently to promote germination and growth and subsequently covered with transparent plastic hoods until the plants had rooted. This cover caused uniform germination of the test plants, unless this had been impaired by the active ingredients. For the post-emergence treatment, the test plants were first grown to a height of 3 to 15 cm, depending on the plant habit, and only then treated with the active ingredients which had been suspended or emulsified in water. For this purpose, the test plants were either sown directly and grown in the same containers, or they were first grown separately as seedlings and transplanted into the test containers a few days prior to treatment. Depending on the species, the plants were kept at 10-25° C. or 20-25° C., respectively. The test period extended over 2 to 4 weeks. During this time, the plants were tended, and their response to the individual treatments was evaluated. Evaluation was carried out using a scale from 0 to 100. 100 means no emergence of the plants, or complete destruction of at least the aerial moieties, and 0 means no damage, or normal course of growth. A good herbicidal activity is given at values of at least 70 and a very good herbicidal activity is given at values of at least 85. Test Series 1: At an application rate of 62.5 g/ha the following compounds were tested in post-emergence tests against: ALOMY (Alopecurus myosuroiedes)

[2] = test system: AVEFA (Avena fatua); test: Greenhouse post-emergence test, test series 1, AVEFA; conditions: application rate 62.5 g/ha, scale 0 to 100 (100 = complete destruction, 0 = no damage)
From the text: as §1, with “AVEFA (Avena fatua)” for “ALOMY (Alopecurus myosuroiedes)”

[3] = test system: ECHCG (Echinocloa crus-galli); test: Greenhouse post-emergence test, test series 1, ECHCG; conditions: Echinochloa crus-galli, application rate 62.5 g/ha, scale 0 to 100 (100 = complete destruction, 0 = no damage)
From the text: as §1, with “ECHCG (Echinocloa crus-galli)” for “ALOMY (Alopecurus myosuroiedes)”

[4] = test system: ALOMY (Alopecurus myosuroiedes); test: Greenhouse pre-emergence test, test series 2, ALOMY; conditions: application rate 125 g/ha, scale 0 to 100 (100 = no emergence, 0 = no damage)
From the text: as §1, with “Series 2:” for “Series 1:”, “of 125” for “of 62.5”, “in pre-emergence” for “in post-emergence”, “tests against” for “tests against:”

Cc1c(NC(=O)N(C)CC(F)(F)F)c(Br)cc(F)c1C(=O)Nc1nnnn1C [Example 1, 4-bromo-6-fluoro-2-methyl-N-(1-methyltetrazol-5-yl)-3-[[methyl(2,2,2-trifluoroethyl)carbamoyl]amino]benzamide]
> 85%: pest or weed control at 62.5 g/ha [1] | pest or weed control at 62.5 g/ha [2] | pest or weed control at 62.5 g/ha [3] | pest or weed control at 125 g/ha [4]

CCN(CC(F)(F)F)C(=O)Nc1c(Br)cc(F)c(C(=O)Nc2nnnn2C)c1C [Example 2, 4-bromo-6-fluoro-2-methyl-N-(1-methyltetrazol-5-yl)-3-[[ethyl(2,2,2-trifluoroethyl)carbamoyl]amino]benzamide]
> 85%: pest or weed control at 62.5 g/ha [1] | pest or weed control at 62.5 g/ha [2] | pest or weed control at 62.5 g/ha [3] | pest or weed control at 125 g/ha [4]

Cc1c(NC(=O)N(CC(F)(F)F)CC(F)(F)F)c(Br)cc(F)c1C(=O)Nc1nnnn1C [Example 3]
> 85%: pest or weed control at 62.5 g/ha [1] | pest or weed control at 62.5 g/ha [2] | pest or weed control at 62.5 g/ha [3] | pest or weed control at 125 g/ha [4]

Cc1c(NC(=O)N(CC(F)(F)F)C2CC2)c(Br)cc(F)c1C(=O)Nc1nnnn1C [Example 6]
> 85%: pest or weed control at 62.5 g/ha [1] | pest or weed control at 62.5 g/ha [2] | pest or weed control at 62.5 g/ha [3] | pest or weed control at 125 g/ha [4]

Cn1nnnc1NC(=O)c1c(F)cc(Cl)c(NC(=O)N(CC(F)(F)F)C2CC2)c1Cl [Example 7]
> 85%: pest or weed control at 62.5 g/ha [1] | pest or weed control at 62.5 g/ha [2] | pest or weed control at 62.5 g/ha [3] | pest or weed control at 125 g/ha [4]

CCN(CC(F)(F)F)C(=O)Nc1c(Cl)cc(F)c(C(=O)Nc2nnnn2C)c1Cl [Example 8]
> 85%: pest or weed control at 62.5 g/ha [2] | pest or weed control at 62.5 g/ha [3] | pest or weed control at 125 g/ha [4]

CN(CC(F)(F)F)C(=O)Nc1c(Cl)cc(F)c(C(=O)Nc2nnnn2C)c1Cl [Example 9, 2,4-dichloro-6-fluoro-N-(1-methyltetrazol-5-yl)-3-[[methyl(2,2,2-trifluoroethyl)carbamoyl]amino]benzamide]
> 85%: pest or weed control at 62.5 g/ha [1] | pest or weed control at 62.5 g/ha [2] | pest or weed control at 62.5 g/ha [3] | pest or weed control at 125 g/ha [4]

CN(CC(F)(F)F)C(=O)Nc1c(C(F)(F)F)cc(F)c(C(=O)Nc2nnnn2C)c1Cl [Example 10]
> 85%: pest or weed control at 62.5 g/ha [1] | pest or weed control at 62.5 g/ha [2] | pest or weed control at 62.5 g/ha [3] | pest or weed control at 125 g/ha [4]

Cc1c(NC(=O)N(C)CC(F)(F)F)c(Cl)cc(F)c1C(=O)Nc1nnnn1C [Example 12]
> 85%: pest or weed control at 62.5 g/ha [1] | pest or weed control at 62.5 g/ha [2] | pest or weed control at 62.5 g/ha [3] | pest or weed control at 125 g/ha [4]

Cc1c(NC(=O)N(CC(F)(F)F)C(C)C)c(Cl)cc(F)c1C(=O)Nc1nnnn1C [Example 13]
> 85%: pest or weed control at 62.5 g/ha [2] | pest or weed control at 62.5 g/ha [3] | pest or weed control at 125 g/ha [4]

CC(C)N(CC(F)(F)F)C(=O)Nc1c(C(F)(F)F)cc(F)c(C(=O)Nc2nnnn2C)c1Cl [Example 14]
> 85%: pest or weed control at 62.5 g/ha [1] | pest or weed control at 62.5 g/ha [2] | pest or weed control at 62.5 g/ha [3] | pest or weed control at 125 g/ha [4]

CCN(CC(F)(F)F)C(=O)Nc1c(Cl)cc(F)c(C(=O)Nc2nnnn2C)c1C [Example 18]
> 85%: pest or weed control at 62.5 g/ha [1] | pest or weed control at 62.5 g/ha [2] | pest or weed control at 62.5 g/ha [3] | pest or weed control at 125 g/ha [4]

Cc1c(NC(=O)N(CC(F)(F)F)CC(F)(F)F)c(Cl)cc(F)c1C(=O)Nc1nnnn1C [Example 19]
> 85%: pest or weed control at 62.5 g/ha [1] | pest or weed control at 62.5 g/ha [2] | pest or weed control at 62.5 g/ha [3] | pest or weed control at 125 g/ha [4]

CC(C)N(CC(F)(F)F)C(=O)Nc1c(Cl)cc(F)c(C(=O)Nc2nnnn2C)c1Cl [Example 20]
> 85%: pest or weed control at 62.5 g/ha [1] | pest or weed control at 62.5 g/ha [2] | pest or weed control at 62.5 g/ha [3] | pest or weed control at 125 g/ha [4]

Cc1c(NC(=O)N(CC(F)(F)F)C2CC2)c(Cl)cc(F)c1C(=O)Nc1nnnn1C [Example 21]
> 85%: pest or weed control at 62.5 g/ha [1] | pest or weed control at 62.5 g/ha [2] | pest or weed control at 62.5 g/ha [3] | pest or weed control at 125 g/ha [4]

Cn1nnnc1NC(=O)c1c(F)cc(C(F)(F)F)c(NC(=O)N(CC(F)(F)F)CC(F)(F)F)c1Cl [Example 22]
> 85%: pest or weed control at 62.5 g/ha [1] | pest or weed control at 62.5 g/ha [2] | pest or weed control at 62.5 g/ha [3] | pest or weed control at 125 g/ha [4]
